Data taken from patent US20200085791A1, “[(PHENYLSULFONYL)OCTAHYDRO-EPIMINOISOINDOL-YL](1H-1,2,3-TRIAZOL-5-YL)METHANONES” (Bayer Pharma Aktiengesellschaft, priority 2016, published 2020).

Biological target: T1, recombinant human AKR1C3 (Aldo-keto reductase family 1 member C3) (Homo sapiens, UniProt P42330)
T1 construct: GST (cleaved yes); made in house; host or cells: E. coli
T1 sequence (P42330 1-323): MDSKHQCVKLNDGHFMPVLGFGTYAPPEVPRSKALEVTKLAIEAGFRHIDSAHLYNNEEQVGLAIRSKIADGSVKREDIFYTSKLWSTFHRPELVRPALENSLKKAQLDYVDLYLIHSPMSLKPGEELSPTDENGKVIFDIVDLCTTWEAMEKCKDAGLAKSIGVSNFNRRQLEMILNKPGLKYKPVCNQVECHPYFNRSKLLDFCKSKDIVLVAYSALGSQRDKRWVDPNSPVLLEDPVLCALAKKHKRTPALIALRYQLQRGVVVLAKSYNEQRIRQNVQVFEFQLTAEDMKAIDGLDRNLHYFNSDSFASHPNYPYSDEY
Assay: In Vitro Assay 1: AKR1C3-inhibitory activity (Coumberone to Coumberol fluorescence assay)
Assay type: biochemical
Conditions: recombinant enzyme, Coumberone 0.3 μM, NADPH 10 μM, 15 min pre-incubation, 4-parameter fit; average or median values
Procedure: In Vitro Assay 1: AKR1C3-Inhibitory Activity
The AKR1C3-inhibitory activity of the substances of the present invention was measured in the AKR1C3 assay described in the paragraphs below.
Essentially, the enzyme activity is measured by quantification of the Coumberol from Coumberone (Halim, M., Yee, D. J., and Sames, D., J. AM. CHEM. SOC. 130, 14123-14128 (2008) and Yee, D. J., Balsanek, V., Bauman, D. R., Penning, T. M., and Sames, D., Proc. Natl. Acad. Sci. USA 103, 13304-13309 (2006)). In this test, the increase of the highly fluorescent Coumberol by NADPH- (nicotinamide adenine dinucleotide phosphate)-dependent reduction of the non-fluorescent Coumberone by AKR1C3 can be determined.
The enzyme used was recombinant human AKR1C3 (Aldo-keto reductase family 1 member C3) (GenBank Accession No. NM_003739). This was expressed in E. coli as GST (glutathione S transferase) fusion protein and purified by glutathione Sepharose affinity chromatography. The GST was removed by digestion with thrombin and subsequent size exclusion chromatography (Dufort, I., Rheault, P., Huang, X F., Soucy, P., and Luu-The, V., Endocrinology 140, 568-574 (1999)).
For the assay, 50 nl of a 100-fold concentrated solution of the test substance in DMSO were pipetted into a black low-volume 384-well microtiter plate (Greiner Bio-One, Frickenhausen, Germany), 2.5 μl of a solution of AKR1C3 in assay buffer [50 mM potassium phosphate buffer pH 7, 1 mM DTT, 0.0022% (w/v) Pluronic F-127, 0.01% BSA (w/v) and protease inhibitor cocktail (Complete, EDTA-free Protease Inhibitor Cocktail from Roche)] were added and the mixture was incubated for 15 min to allow pre-binding of the substances to the enzyme prior to the enzyme reaction. The enzyme reaction was then started by addition of 2.5 μl of a solution of NADPH (20 μM→final concentration in 5 μl of assay volume is 10 μM) and Coumberone (0.6 μM→final concentration in 5 μl of assay volume is 0.3 μM) in assay buffer, and the resulting mixture was incubated at […] for the reaction time of typically 90 min. The concentration of the AKR1C3 and the reaction time was adapted to the respective activity of the enzyme preparation and adjusted such that the assay was carried out in the linear range.
Typical AKR1C3 concentrations were in the region of 1 nM. The reaction was stopped by addition of 2.5 μl of a stop solution consisting of the inhibitor EM-1404 [F. Labrie et al. U.S. Pat. No. 6,541,463, 2003] (3 μM→final concentration in 7.5 μl of assay volume is 1 μM). The fluorescence of the Coumberole was then measured at 520 nm (excitation at 380 nm) using a suitable measuring instrument (Pherastar from BMG Labtechnologies). The intensity of the fluorescence was used as a measure of the amount of Coumberole formed and thus of the enzyme activity of AKR1C3. The data were normalized (enzyme reaction without inhibitor—0% inhibition; all other assay components, but no enzyme=100% inhibition).

IC50 [nM] | SMILES
82 | O=C(c1cnn[nH]1)N1C[C@@H]2[C@H](C1)[C@H]1CC[C@@H]2N1S(=O)(=O)c1ccc(Cl)c(Cl)c1 [Example 37, {(3aR,4R,7S,7aS)-8-[(3,4-dichlorophenyl)sulfonyl]octahydro-2H-4,7-epiminoisoindol-2-yl}(1H-1,2,3-triazol-5-yl)methanone]
45 | O=C(c1cnn[nH]1)N1C[C@@H]2[C@H](C1)[C@H]1CC[C@@H]2N1S(=O)(=O)c1ccccc1 [Example 20, [(3aR,4R,7S,7aS)-8-(phenylsulfonyl)octahydro-2H-4,7-epiminoisoindol-2-yl](1H-1,2,3-triazol-5-yl)methanone]
174 | O=C(c1cnn[nH]1)N1C[C@@H]2[C@H](C1)[C@H]1CC[C@@H]2N1S(=O)(=O)c1cccc([N+](=O)[O-])c1 [Example 33, {(3aR,4R,7S,7aS)-8-[(3-nitrophenyl)sulfonyl]octahydro-2H-4,7-epiminoisoindol-2-yl}(1H-1,2,3-triazol-5-yl)methanone]
109 | O=C(c1cnn[nH]1)N1C[C@@H]2[C@H](C1)[C@H]1CC[C@@H]2N1S(=O)(=O)c1cccc2nsnc12 [Example 45, [(3aR,4R,7S,7aS)-8-(2,1,3-benzothiadiazol-4-ylsulfonyl)octahydro-2H-4,7-epiminoisoindol-2-yl](1H-1,2,3-triazol-5-yl)methanone]
731 | COc1ccc(S(=O)(=O)N2[C@@H]3CC[C@H]2[C@@H]2CN(C(=O)c4cnn[nH]4)C[C@@H]23)cc1OC [Example 41, {(3aR,4R,7S,7aS)-8-[(3,4-dimethoxyphenyl)sulfonyl]octahydro-2H-4,7-epiminoisoindol-2-yl}(1H-1,2,3-triazol-5-yl)methanone]
21 | O=C(c1cnn[nH]1)N1C[C@@H]2[C@H](C1)[C@H]1CC[C@@H]2N1S(=O)(=O)c1cc(F)c(F)cc1F [Example 52, 1H-1,2,3-triazol-5-yl{(3aR,4R,7S,7aS)-8-[(2,4,5-trifluorophenyl)sulfonyl]octahydro-2H-4,7-epiminoisoindol-2-yl}methanone]
798 | COC(=O)c1cccc(S(=O)(=O)N2[C@@H]3CC[C@H]2[C@@H]2CN(C(=O)c4cnn[nH]4)C[C@@H]23)c1 [Example 56, methyl 3-{[(3aR,4R,7S,7aS)-2-(1H-1,2,3-triazol-5-ylcarbonyl)octahydro-1H-4,7-epiminoisoindol-8-yl]sulfonyl}benzoate]
61 | O=C(c1c[nH]nn1)N1C[C@@H]2[C@H](C1)[C@@H]1CC[C@H]2N1S(=O)(=O)c1cccc(C(F)(F)F)c1 [Example 2, 1H-1,2,3-triazol-4-yl[(3aR,4S,7R,7aS)-8-{[3-(trifluoromethyl)phenyl]sulfonyl}octahydro-2H-4,7-epiminoisoindol-2-yl]methanone]
27 | Cc1cc(C)c(S(=O)(=O)N2[C@@H]3CC[C@H]2[C@@H]2CN(C(=O)c4cnn[nH]4)C[C@@H]23)c(C)c1 [Example 34, 1H-1,2,3-triazol-5-yl{(3aR,4R,7S,7aS)-8-[(2,4,6-trimethylphenyl)sulfonyl]octahydro-2H-4,7-epiminoisoindol-2-yl}methanone]
213 | O=C(c1cnn[nH]1)N1C[C@@H]2[C@H](C1)[C@H]1CC[C@@H]2N1S(=O)(=O)c1ccc2nsnc2c1 [Example 48, [(3aR,4R,7S,7aS)-8-(2,1,3-benzothiadiazol-5-ylsulfonyl)octahydro-2H-4,7-epiminoisoindol-2-yl](1H-1,2,3-triazol-5-yl)methanone]
45 | COc1ccccc1S(=O)(=O)N1[C@@H]2CC[C@H]1[C@H]1CN(C(=O)c3c[nH]nn3)C[C@H]12 [Example 15, {(3aR,4S,7R,7aS)-8-[(2-methoxyphenyl)sulfonyl]octahydro-2H-4,7-epiminoisoindol-2-yl}(1H-1,2,3-triazol-4-yl)methanone]
24 | O=C(c1c[nH]nn1)N1C[C@@H]2[C@H](C1)[C@@H]1CC[C@H]2N1S(=O)(=O)c1ccccc1F [Example 14, {(3aR,4S,7R,7aS)-8-[(2-fluorophenyl)sulfonyl]octahydro-2H-4,7-epiminoisoindol-2-yl}(1H-1,2,3-triazol-4-yl)methanone]
110 | COc1cc(C)ccc1S(=O)(=O)N1[C@@H]2CC[C@H]1[C@@H]1CN(C(=O)c3cnn[nH]3)C[C@@H]12 [Example 58, {(3aR,4R,7S,7aS)-8-[(2-methoxy-4-methylphenyl)sulfonyl]octahydro-2H-4,7-epiminoisoindol-2-yl}(1H-1,2,3-triazol-5-yl)methanone]
78 | O=C(c1cnn[nH]1)N1C[C@@H]2[C@H](C1)[C@H]1CC[C@@H]2N1S(=O)(=O)c1cccc2c1OCC2 [Example 62, [(3aR,4R,7S,7aS)-8-(2,3-dihydro-1-benzofuran-7-ylsulfonyl)octahydro-2H-4,7-epiminoisoindol-2-yl](1H-1,2,3-triazol-5-yl)methanone]
66 | Cc1cc(C)cc(S(=O)(=O)N2[C@@H]3CC[C@H]2[C@H]2CN(C(=O)c4cnn[nH]4)C[C@H]23)c1 [Example 24, {(3aR,4S,7R,7aS)-8-[(3,5-dimethylphenyl)sulfonyl]octahydro-2H-4,7-epiminoisoindol-2-yl}(1H-1,2,3-triazol-5-yl)methanone]
4 | O=C(c1cnn[nH]1)N1C[C@@H]2[C@H](C1)[C@H]1CC[C@@H]2N1S(=O)(=O)c1ccc(F)cc1Cl [Example 39, {(3aR,4R,7S,7aS)-8-[(2-chloro-4-fluorophenyl)sulfonyl]octahydro-2H-4,7-epiminoisoindol-2-yl}(1H-1,2,3-triazol-5-yl)methanone]
4 | O=C(c1cnn[nH]1)N1C[C@@H]2[C@H](C1)[C@H]1CC[C@@H]2N1S(=O)(=O)c1ccccc1[N+](=O)[O-] [Example 35, {(3aR,4R,7S,7aS)-8-[(2-nitrophenyl)sulfonyl]octahydro-2H-4,7-epiminoisoindol-2-yl}(1H-1,2,3-triazol-5-yl)methanone]
48 | Cc1cc(Cl)cc(S(=O)(=O)N2[C@@H]3CC[C@H]2[C@@H]2CN(C(=O)c4cnn[nH]4)C[C@@H]23)c1 [Example 68, {(3aR,4R,7S,7aS)-8-[(3-chloro-5-methylphenyl)sulfonyl]octahydro-2H-4,7-epiminoisoindol-2-yl}(1H-1,2,3-triazol-5-yl)methanone]
84 | N#Cc1c(Cl)cccc1S(=O)(=O)N1[C@@H]2CC[C@H]1[C@@H]1CN(C(=O)c3cnn[nH]3)C[C@@H]12 [Example 61, 2-chloro-6-{[(3aR,4R,7S,7aS)-2-(1H-1,2,3-triazol-5-ylcarbonyl)octahydro-1H-4,7-epiminoisoindol-8-yl]sulfonyl}benzonitrile]
855 | N#Cc1ccc(S(=O)(=O)N2[C@@H]3CC[C@H]2[C@@H]2CN(C(=O)c4cnn[nH]4)C[C@@H]23)cc1 [Example 43, 4-{[(3aR,4R,7S,7aS)-2-(1H-1,2,3-triazol-5-ylcarbonyl)octahydro-1H-4,7-epiminoisoindol-8-yl]sulfonyl}benzonitrile]
45 | COc1cc(F)ccc1S(=O)(=O)N1[C@@H]2CC[C@H]1[C@@H]1CN(C(=O)c3cnn[nH]3)C[C@@H]12 [Example 65, {(3aR,4R,7S,7aS)-8-[(4-fluoro-2-methoxyphenyl)sulfonyl]octahydro-2H-4,7-epiminoisoindol-2-yl}(1H-1,2,3-triazol-5-yl)methanone]
